The results in this text go back to US8911953B2, “TDF-related compounds and analogs thereof, analogs and bioactive fragments” (Thrasos Innovation, Inc., priority 2005, dated 2014).

The subject of test [1] is UUO mice. Kind of test: Unilateral ureteral obstruction (UUO) mouse model of chronic renal injury. Format: in vivo. As to the method: Schematic of the unilateral urinary obstruction (UUO) mouse model of chronic renal injury. One ureter was ligated on Day 0 (D0) and mice received one of the following treatments: vehicle (control), BMP-7 by intraperitoneal (ip) administration (positive control) or TDFRP by ip, intravenous (iv) or oral (po) administration. Mice were sacrificed on Day 5 (D5) or Day 7 (D7) and the kidneys were evaluated for disease pathology.
Unilateral ureteral obstruction (UUO) is a model resembling human obstructive nephropathy, which represents an inducible chronic model of interstitial fibrosis. UUO is induced by ligation of one ureter, leaving the contra-lateral kidney to serve as a control. As a result of the procedure, mice develop renal tubulointerstitial inflammation, tubulointerstitial fibrosis and tubular atrophy, without hypertension, proteinuria, lipid dysregulation and little glomerular damage contributing to the disease state (Ito et al (2004). J. Urol. February; 171(2 Pt 1): 926-30.; Bhangdia et al. (2003) J. Urol. November; 170(5): 2057-62.; Rawashdeh et al. (2003) Invest Radiol. 2003 March; 38(3): 153-8.; Hruska et al (2000) Am J Physiol Renal Physiol. 2000 July; 79(1): F130-43.). Furthermore, renal fibrosis is associated with alteration of epithelial and fibroblastic cells to myofibroerblasts, along with increased expression of TGF-beta and progressive loss of renal function.

The test system of test [2] is rats with coronary artery ligation. The experiment in a line: Left anterior descending (LAD) coronary occlusion model of myocardial injury. Format: in vivo, rat. Conditions: for reduction in AN/AR ratio as compared to PBS-treated animals: Day 7. Here is the method:
Schematic of the Left Anterior Descending […] (LAD) occlusion model of myocardial injury. The image represents a cross section through the heart of rats showing that treatment with TDFRP or BMP prevents ischemic injury. Left anterior descending arteries were occluded for 20 minutes to induce ischemia. Upon removal of the ligature, blood flow into the heart causes reperfusion injury and apoptosis. After seven days, the heart was stained with Evan's blue dye to differentiate the perfused, unaffected area from the occluded region (area at risk). Four doses of TDFRP (SEQ ID NO:45) were used in the treated animals (pre-occlusion, and 24, 48 and 72 hrs post-occlusion). A) left anterior descending coronary artery ligated to create ischemia, B) infarct areas (IA), C) the unaffected, perfused region. Dyed blue at sacrifice, D) ventricular lumen, E) approximate regional boundary, F) the affected (ischemic) region (AR). Where reperfusion injury leads to apoptosis
The efficacy of TDFRP compound (SEQ ID NO:45) in ameliorating the effects of myocardial ischemia was investigated in the rat after ligation of the coronary artery. […] unmanipulated rats, sorted into two large groups by initial body weight (>300 g pre-surgery) were evaluated. Fourteen rats underwent surgery on week, 12 rats underwent surgery on week 2 and rats were sorted into 3 treatment groups: Group 1, PBS; Group 2, positive control TDF-1; Group 3, test article TDFRP (SEQ ID NO:45) (see Table 13).
Three days prior to surgery, a serum sample was collected from the tail vein of each rat (pre-bleed). On the day of surgery, each rat was administered compound intravenously 2 hr prior to surgery. Surgery was performed sequentially after intubation and ventilation with 0.5% isofluorane anesthetic. Lead II ECG was monitored throughout the surgery. A thoracotomy was performed and the main left coronary artery was occluded for 20 min using a snare technique (FIG. 19). Successful occlusion of the artery was confirmed by ST elevation in lead II ECG within the first 5 minutes of ligation, and by frequent ventricular arrhythmia after 10 minutes of ligation. The snare was released to restore blood flow. The original suture loop was left in place for subsequent re-occlusion on Day 7. After initiation of reperfusion, the chest cavity was closed with 2 layers of suture. Rats were weaned from the ventilator and observed until fully conscious and mobile. Antibiotic (QD) and analgesic (Q8D) were provided. Additional serum samples were collected 6, 24, 72 and 120 hours post occlusion. Additional compound, positive control or vehicle treatments were delivered by intravenous injection in the tail vein at 24, 72 and 120 hours post occlusion.
On Day 7, each rat was anesthetized (ketamine:xyline), the chest cavity re-opened and a terminal blood sample (1 ml) was withdrawn from the abdominal vein. Gross pathology (i.e. inflammation) was noted and graded on a 4 point inflammation scale: 0=no inflammation, 1=slight, 2=moderate, 3=severe and 4=complete pericarditis. The left coronary artery was then re-occluded using the existing stitch and a concentrated solution of Evans Blue dye in saline (20 mg/ml; 0.5 ml/rat) was injected into the heart apex to stain the non-ischemic cardiac tissue blue. The heart was then arrested by injection of a saturated solution of potassium chloride into the right ventricle. The heart was then excised, wrapped in cellophane and stored at −20° C. for 1.5 hour. The cold heart was cut into 10 cross-sectional slices (2 mm/slice) and each section was numbered and incubated separately in triphenyltetrazolium chloride (1% TTC in PBS) for 10 minutes at 37° C. prior to fixing in 4% formaldehyde. Subsequently, each slice was photographed. For each slice, the “area at risk (AR)” and the “area occupied by necrosis (AN)” were measured by morphometry. The ratio of AN to AR is a measure of the degree of damage resulting from the occlusion (FIG. 20).

Positions of bridges follow the written chain, without caps; N, C: chain ends. No end group written: not given here.

Take “CYFDDSSNVLCKKYRS (disulfide 1-11 (inferred); not fully specified) [SEQ ID NO:45]”: in test [1] (5-day model, administered orally, ip or iv), the “severity of tubular damage (percent of renal tubular degradation)” value was “attenuated the severity of tubular damage”. Moreover, the “progression of tubulointerstitial fibrosis disease” value in test [1] (5-day model, oral 5 mg/kg/24 hours or iv 50 mg/kg/24 hours) is recorded as “attenuated progression”; in test [1] (7-day model, oral or iv 5 mg/kg/24 hours), “significantly attenuated”. For the same molecule, the “reduction in AN/AR ratio as compared to PBS-treated animals” value in test [2] (10 mg/kg i.v.) was determined as 84%. In test [2] (10 mg/kg i.v., Day 7, 4 point inflammation scale), the “reduction in inflammation score as compared to PBS-treated animals” value was determined as 78%. In test [2] (myocardial ischemia and reperfusion injury), the “inflammation and cytotoxic effects toward cardiomyocytes following myocardial infarction” value is “ameliorate inflammation and cytotoxic effects”. The “degree of cardiac inflammation” value in test [2] (rat, in vivo) is recorded as “reduces”. Besides, in test [2] (rat, in vivo), the “necrotic area to area at risk ratio (IA/AR)” value is reported as “reduces”.

B1: BMP-7: recombinant human mature BMP-7 (BMP-7 or TDF-1), positive control therapy (protein)
chain: STGSKQRSQNRSKTPKNQEALRMANVAENSSSDQRQACKKHELYVSFRDLGWQDWIIAPEGYAAYYCEGECAFPLNSYMNATNHAIVQTLVHFINPETVPKPCCAPTQLNAISVLYFDDSSNVILKKYRNMVVRACGCH
In the case of B1, the chronic renal injury result in test [1] (5-day model, ip 300 ug/kg/48 hours) is given as “Reversal”. Moreover, the “UUO chronic renal injury” value in test [1] (7-day model, ip 300 ug/kg/48 hours) is recorded as “Reversal”. The “reduction in AN/AR ratio as compared to PBS-treated animals” value in test [2] (160 μg/kg i.v.) came out at 7%.
